# Data reported in patent publication US7241775B2, “Composition, process of making, and medical use of substituted 4-phenyltetrahydroisoquinolines” (Sanofi-Aventis Deutschland GmbH, priority 2003, dated 2007).
# Structures can show the parent of a compound that is named as a salt.
# Target: T1, NHE3 (Homo sapiens, UniProt P48764)
# T1 sequence (P48764 26-834): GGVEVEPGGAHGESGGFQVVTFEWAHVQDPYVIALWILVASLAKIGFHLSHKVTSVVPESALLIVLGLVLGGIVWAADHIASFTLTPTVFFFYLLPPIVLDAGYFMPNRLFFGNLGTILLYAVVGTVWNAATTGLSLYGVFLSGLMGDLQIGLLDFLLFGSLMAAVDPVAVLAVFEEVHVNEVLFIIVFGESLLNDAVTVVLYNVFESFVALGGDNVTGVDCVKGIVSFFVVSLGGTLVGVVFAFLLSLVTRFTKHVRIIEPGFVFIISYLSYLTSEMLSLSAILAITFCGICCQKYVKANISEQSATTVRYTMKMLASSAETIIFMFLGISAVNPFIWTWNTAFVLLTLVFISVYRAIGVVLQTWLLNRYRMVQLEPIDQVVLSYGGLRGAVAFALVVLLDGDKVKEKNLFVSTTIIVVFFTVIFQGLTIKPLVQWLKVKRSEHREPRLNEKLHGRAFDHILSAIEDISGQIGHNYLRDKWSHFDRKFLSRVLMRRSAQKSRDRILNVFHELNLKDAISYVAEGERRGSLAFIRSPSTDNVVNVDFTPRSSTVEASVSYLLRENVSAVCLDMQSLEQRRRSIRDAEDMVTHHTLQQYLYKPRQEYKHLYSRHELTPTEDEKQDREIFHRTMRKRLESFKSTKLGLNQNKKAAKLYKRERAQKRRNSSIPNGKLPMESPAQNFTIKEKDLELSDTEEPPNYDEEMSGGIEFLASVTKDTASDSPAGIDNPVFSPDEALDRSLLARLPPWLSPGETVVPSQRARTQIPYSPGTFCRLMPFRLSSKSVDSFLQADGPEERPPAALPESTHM
# Experiment: Recovery of intracellular pH (pHi) after acidification, BCECF fluorescence, NHE3
# Type: cell-based
# Settings: inhibition of pH recovery after intracellular acidification; rate registered at three minutes for NHE3; bicarbonate-free
# Method: Pharmacological Data: Test Description:
# This test determines the recovery of the intracellular pH (pHi) after acidification, and this recovery occurs in the case of functional NHE even under bicarbonate-free conditions. To this end, the pHi was determined using the pH-sensitive fluorescent dye BCECF (Calbiochem, the BCECF-AM precursor was used). The cells were initially loaded with BCECF. The BCECF fluorescence was determined in a Ratio Fluorescence Spectrometer (Photon Technology International, South Brunswick, N.J., USA) at excitation wavelengths of 505 and 440 nm and an emission wavelength of 535 nm and converted to the pHi by means of calibration curves. The cells had already been incubated in NH4Cl buffer (pH 7.4) in the course of the BCECF loading (NH4Cl buffer: 115 mM NaCl, 20 mM NH4Cl, 5 mM KCl, 1 mM CaCl2, 1 mM MgSO4, 20 mM Hepes, 5 mM glucose, 1 mg/ml BSA; a pH of 7.4 was established using 1 M NaOH). The intracellular acidification was induced by adding 975 μl of an NH4Cl-free buffer (see below) to 25 μl aliquots of the cells incubated in NH4Cl buffer. The subsequent rate of the pH recovery was registered at 2 minutes for NHE1, at 5 minutes for NHE2 and at three minutes for NHE3. For the calculation of the inhibitory potency of the tested substances, the cells were initially investigated in buffers in which complete or absolutely no pH recovery took place. For complete pH recovery (100%), the cells were incubated in Na^+-containing buffer (133.8 mM NaCl, 4.7 mM KCl, 1.25 mM CaCl2, 1.25 mM MgCl2, 0.97 mM Na2HPO4, 0.23 mM NaH2PO4, 5 mM Hepes, 5 mM glucose, a pH of 7.0 was established using 1 M NaOH). For the determination of the 0% value, the cells were incubated in an Na^+-free buffer (133.8 mM choline chloride, 4.7 mM KCl, 1.25 mM CaCl2, 1.25 mM MgCl2, 0.97 mM K2HPO4, 0.23 mM KH2PO4, 5 mM Hepes, 5 mM glucose, a pH of 7.0 was established using 1 M NaOH). The substances to be tested were made up in the Na^+-containing buffer. The recovery of the intracellular pH at each tested concentration of a substance was expressed in percent of the maximum recovery. The percentages of the pH recovery were used to calculate the IC50 value of the particular substance for the individual NHE subtypes by means of the program Sigma-Plot.
row,IC50 [nM],SMILES
1,3.6,"CN1Cc2c(Cl)cc(Cl)cc2C(c2cccc(NC(=O)[C@H](O)[C@@H](O)[C@H](O)[C@H](O)CO)c2)C1 (stereo partly drawn) [Example 2, N-[3-(6,8-dichloro-2-methyl-1,2,3,4-tetrahydroisoquinolin-4-yl)phenyl]-(2R,3S,4R,5R)-2,3,4,5,6-pentahydroxyhexanamide]"
2,17.6,"CN1Cc2c(Cl)cc(Cl)cc2C(c2cccc(NC(=O)N[C@@H](CC(N)=O)C(=O)O)c2)C1 (stereo partly drawn) [Example 13, {N-[3-(6,8-dichloro-2-methyl-1,2,3,4-tetrahydroisoquinolin-4-yl)phenyl]-N′-(1-carboxy-4-aminocarboxy-2S-butyl)}urea hydrochloride]"
3,159,"CN1Cc2c(Cl)cc(Cl)cc2C(c2cccc(C(=O)N[C@@H](CO)C(=O)O)c2)C1 (stereo partly drawn) [Example 16, (S)-2-[3-(6,8-dichloro-2-methyl-1,2,3,4-tetrahydroisoquinolin-4-yl)benzoylamino]-3-hydroxypropionic acid hydrochloride]"
4,29.1,"CN1Cc2c(Cl)cc(Cl)cc2C(c2ccc(NC(=O)[C@@H](N)CCCNC(=N)N)cc2)C1 (stereo partly drawn) [Example 31, N-[4-(6,8-dichloro-2-methyl-1,2,3,4-tetrahydroisoquinolin-4-yl)phenyl]-(S)-2-amino-5-guanidinopentanamide trifluoroacetate]"
